Laboratory results published in ChEMBL document CHEMBL4431331, “Design and evaluation of 1,7-naphthyridones as novel KDM5 inhibitors” (Bioorg Med Chem Lett, 2016).
Active and inactive are the calls of the source. No cut-off for these calls is given here.

Experiments:
[1] = target: T1, Lysine-specific demethylase 5A (Homo sapiens, UniProt P29375); assay: Inhibition of full length human KDM5A using biotinylated H2NART(KMe3)QTARKSTGGKAPRKQLA-NTPEG-biotin as substrate after 30 to 40 mins using 1 uM of 2-OG as co-substrate by TR-FRET assay
T1 sequence (P29375 whole entry): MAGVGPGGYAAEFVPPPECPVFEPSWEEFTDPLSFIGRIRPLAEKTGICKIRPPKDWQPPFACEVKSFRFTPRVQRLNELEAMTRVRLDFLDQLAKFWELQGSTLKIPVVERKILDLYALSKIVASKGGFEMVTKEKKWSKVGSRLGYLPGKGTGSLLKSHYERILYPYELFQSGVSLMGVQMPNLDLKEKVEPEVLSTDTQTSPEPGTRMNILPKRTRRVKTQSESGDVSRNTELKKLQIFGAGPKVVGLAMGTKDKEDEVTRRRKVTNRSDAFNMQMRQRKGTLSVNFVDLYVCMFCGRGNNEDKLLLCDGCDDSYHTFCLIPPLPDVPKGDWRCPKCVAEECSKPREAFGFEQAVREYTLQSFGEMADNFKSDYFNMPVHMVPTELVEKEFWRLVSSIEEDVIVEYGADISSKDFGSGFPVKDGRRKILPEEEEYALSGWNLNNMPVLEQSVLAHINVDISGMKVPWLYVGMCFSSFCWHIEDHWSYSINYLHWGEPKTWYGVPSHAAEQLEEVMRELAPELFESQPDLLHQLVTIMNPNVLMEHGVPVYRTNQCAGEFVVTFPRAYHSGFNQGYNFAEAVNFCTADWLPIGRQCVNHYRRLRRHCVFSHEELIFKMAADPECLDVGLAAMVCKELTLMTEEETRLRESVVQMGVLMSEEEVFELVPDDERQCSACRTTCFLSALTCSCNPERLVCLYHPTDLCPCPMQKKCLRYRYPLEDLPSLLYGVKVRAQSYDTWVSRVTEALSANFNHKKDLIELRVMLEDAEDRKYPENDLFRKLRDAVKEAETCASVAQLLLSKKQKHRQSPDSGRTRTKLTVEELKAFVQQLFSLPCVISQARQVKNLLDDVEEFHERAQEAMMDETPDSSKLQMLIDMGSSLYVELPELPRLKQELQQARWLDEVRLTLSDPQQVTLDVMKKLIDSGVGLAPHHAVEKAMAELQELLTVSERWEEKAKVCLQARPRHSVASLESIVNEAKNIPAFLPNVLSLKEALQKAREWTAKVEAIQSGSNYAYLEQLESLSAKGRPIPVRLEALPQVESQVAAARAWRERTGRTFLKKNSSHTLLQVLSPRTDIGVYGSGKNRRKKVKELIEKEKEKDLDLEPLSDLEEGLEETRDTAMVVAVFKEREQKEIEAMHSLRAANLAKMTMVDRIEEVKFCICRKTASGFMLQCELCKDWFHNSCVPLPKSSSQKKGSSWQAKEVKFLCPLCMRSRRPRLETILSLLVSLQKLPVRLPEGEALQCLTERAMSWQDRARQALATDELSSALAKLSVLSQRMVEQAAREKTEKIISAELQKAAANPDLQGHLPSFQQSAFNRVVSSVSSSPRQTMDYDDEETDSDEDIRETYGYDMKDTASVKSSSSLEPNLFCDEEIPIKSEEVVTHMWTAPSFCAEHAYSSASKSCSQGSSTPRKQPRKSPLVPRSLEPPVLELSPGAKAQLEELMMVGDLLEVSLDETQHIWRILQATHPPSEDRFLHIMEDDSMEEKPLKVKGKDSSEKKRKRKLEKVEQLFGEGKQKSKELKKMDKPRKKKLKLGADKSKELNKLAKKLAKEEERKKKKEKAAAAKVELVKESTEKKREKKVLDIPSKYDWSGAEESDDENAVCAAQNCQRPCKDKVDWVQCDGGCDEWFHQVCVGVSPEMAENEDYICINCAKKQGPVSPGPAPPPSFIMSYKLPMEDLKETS

[2] = Plasma protein binding in human; assay type: ADME, cell-free; settings: read-out: PPB (converted)
[3] = Hepatic clearance in human liver microsomes; assay type: ADME, Microsome
[4] = Apparent permeability from apical to basolateral side in MDCK cells; assay type: ADME, cell-based, Canis lupus familiaris; settings: dog
[5] = target: T1, Lysine-specific demethylase 5A; assay: Inhibition of KDM5A in human PC9 cells assessed as increase in H3K4me3 levels upto 30 uM after 4 days by HTRF assay; assay type: cell-based
[6] = Dissociation constant, pKa of the compound; assay type: physicochemical
[7] = target: T1, Lysine-specific demethylase 5A; assay: Inhibition of full length human KDM5A using biotinylated H2NART(KMe3)QTARKSTGGKAPRKQLA-NTPEG-biotin as substrate after 30 to 40 mins using 20 uM of 2-OG as co-substrate by TR-FRET assay
[8] = Competitive inhibition of KDM5 (unknown origin) in presence of 2-OG; set-up: species or system Homo sapiens
[9] = target: T2, Lysine-specific demethylase 2B (Homo sapiens, UniProt Q8NHM5); assay: Inhibition of full length human KDM2B using biotinylated H2N-RKSAPATGGV(KMe2)KPHRYRPGTV-NTPEGBiot as substrate after 2 hrs using 0.3 uM of 2-OG as co-substrate by TR-FRET assay
T2 sequence (Q8NHM5 whole entry): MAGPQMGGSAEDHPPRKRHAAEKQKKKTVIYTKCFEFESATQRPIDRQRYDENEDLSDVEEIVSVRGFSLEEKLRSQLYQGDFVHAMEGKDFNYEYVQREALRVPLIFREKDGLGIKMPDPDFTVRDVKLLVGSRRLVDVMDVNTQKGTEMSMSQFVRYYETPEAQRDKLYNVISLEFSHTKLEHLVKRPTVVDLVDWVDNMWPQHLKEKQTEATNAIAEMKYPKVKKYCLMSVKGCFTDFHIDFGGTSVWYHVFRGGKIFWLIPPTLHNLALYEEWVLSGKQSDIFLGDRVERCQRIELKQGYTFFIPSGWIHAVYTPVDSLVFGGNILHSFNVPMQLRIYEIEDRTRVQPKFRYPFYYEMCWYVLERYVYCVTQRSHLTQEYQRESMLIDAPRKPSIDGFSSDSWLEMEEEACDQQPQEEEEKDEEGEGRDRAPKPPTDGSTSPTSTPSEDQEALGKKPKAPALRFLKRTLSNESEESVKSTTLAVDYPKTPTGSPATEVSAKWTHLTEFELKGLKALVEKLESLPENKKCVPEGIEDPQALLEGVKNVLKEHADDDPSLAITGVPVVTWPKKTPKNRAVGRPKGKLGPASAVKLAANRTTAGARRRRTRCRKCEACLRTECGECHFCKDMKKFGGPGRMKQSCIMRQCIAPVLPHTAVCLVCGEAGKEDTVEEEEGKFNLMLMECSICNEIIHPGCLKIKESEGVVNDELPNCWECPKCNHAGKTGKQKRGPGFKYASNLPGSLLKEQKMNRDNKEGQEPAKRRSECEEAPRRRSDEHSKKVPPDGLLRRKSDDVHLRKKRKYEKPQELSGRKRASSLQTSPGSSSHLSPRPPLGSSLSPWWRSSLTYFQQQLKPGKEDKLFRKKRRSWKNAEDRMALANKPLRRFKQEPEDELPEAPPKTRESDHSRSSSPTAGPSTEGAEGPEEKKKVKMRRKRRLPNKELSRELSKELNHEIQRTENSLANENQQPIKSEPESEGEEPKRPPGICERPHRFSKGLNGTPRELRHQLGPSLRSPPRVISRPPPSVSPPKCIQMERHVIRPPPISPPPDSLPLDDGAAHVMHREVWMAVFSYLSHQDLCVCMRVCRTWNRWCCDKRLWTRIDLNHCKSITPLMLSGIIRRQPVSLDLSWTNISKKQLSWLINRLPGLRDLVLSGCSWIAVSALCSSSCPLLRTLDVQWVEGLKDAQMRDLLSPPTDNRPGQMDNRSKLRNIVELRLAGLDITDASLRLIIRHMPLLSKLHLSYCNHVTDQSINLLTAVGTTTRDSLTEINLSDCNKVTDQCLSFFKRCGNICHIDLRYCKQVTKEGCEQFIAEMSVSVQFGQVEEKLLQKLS

[10] = target: Lysine-specific demethylase 5C (Homo sapiens, UniProt P41229); assay: Inhibition of full length human KDM5C using biotinylated H2NART(KMe3)QTARKSTGGKAPRKQLA-NTPEG-biotin as substrate after 30 to 40 mins using 1 uM of 2-OG as co-substrate by TR-FRET assay
Sequence of Lysine-specific demethylase 5C (P41229 whole entry): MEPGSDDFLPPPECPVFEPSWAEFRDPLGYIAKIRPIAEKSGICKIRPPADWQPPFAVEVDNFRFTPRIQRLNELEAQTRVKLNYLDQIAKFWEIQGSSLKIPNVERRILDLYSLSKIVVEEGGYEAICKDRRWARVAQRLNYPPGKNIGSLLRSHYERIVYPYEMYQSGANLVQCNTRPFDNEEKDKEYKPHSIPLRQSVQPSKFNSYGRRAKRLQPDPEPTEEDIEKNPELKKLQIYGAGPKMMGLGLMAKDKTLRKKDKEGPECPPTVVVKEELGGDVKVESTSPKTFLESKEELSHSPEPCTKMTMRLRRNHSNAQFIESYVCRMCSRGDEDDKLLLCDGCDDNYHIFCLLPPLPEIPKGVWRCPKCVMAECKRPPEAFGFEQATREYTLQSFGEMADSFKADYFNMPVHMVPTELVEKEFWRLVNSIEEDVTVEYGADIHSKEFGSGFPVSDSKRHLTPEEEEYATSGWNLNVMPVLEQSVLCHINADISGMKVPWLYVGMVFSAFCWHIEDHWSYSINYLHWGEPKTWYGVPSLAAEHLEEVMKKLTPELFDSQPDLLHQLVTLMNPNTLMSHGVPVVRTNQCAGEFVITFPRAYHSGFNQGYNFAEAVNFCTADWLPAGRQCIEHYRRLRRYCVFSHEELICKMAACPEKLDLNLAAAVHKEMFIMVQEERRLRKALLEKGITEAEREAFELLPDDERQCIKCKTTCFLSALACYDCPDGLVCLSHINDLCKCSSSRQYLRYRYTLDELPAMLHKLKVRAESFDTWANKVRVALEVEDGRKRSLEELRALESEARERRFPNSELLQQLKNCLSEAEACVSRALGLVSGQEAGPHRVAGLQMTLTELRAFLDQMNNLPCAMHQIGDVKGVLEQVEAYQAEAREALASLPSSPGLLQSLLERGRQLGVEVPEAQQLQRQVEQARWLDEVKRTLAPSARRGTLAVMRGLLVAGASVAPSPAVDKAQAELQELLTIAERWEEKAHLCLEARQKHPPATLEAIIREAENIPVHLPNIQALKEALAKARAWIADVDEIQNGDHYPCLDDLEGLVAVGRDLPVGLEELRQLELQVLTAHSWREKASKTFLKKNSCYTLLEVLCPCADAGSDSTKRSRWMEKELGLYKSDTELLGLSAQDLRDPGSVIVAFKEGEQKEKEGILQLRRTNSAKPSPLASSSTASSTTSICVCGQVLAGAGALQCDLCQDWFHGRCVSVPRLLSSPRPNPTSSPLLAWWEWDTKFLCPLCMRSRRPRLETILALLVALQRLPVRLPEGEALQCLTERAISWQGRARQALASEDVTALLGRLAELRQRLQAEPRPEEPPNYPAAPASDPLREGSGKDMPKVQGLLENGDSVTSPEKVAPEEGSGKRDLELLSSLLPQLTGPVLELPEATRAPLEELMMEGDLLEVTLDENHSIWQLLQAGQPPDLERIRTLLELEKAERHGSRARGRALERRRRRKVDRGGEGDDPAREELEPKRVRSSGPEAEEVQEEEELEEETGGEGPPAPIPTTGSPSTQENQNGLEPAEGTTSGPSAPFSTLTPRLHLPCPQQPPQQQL

[11] = target: T3, Lysine-specific demethylase 4C (Homo sapiens, UniProt Q9H3R0); assay: Inhibition of full length human KDM4C using biotinylated H2N-ARTKQTAR(KMe3)STGGKAPRKQLA-NTPEGBiot as substrate after 30 mins using 3 uM of 2-OG as co-substrate by TR-FRET assay
T3 sequence (Q9H3R0 whole entry): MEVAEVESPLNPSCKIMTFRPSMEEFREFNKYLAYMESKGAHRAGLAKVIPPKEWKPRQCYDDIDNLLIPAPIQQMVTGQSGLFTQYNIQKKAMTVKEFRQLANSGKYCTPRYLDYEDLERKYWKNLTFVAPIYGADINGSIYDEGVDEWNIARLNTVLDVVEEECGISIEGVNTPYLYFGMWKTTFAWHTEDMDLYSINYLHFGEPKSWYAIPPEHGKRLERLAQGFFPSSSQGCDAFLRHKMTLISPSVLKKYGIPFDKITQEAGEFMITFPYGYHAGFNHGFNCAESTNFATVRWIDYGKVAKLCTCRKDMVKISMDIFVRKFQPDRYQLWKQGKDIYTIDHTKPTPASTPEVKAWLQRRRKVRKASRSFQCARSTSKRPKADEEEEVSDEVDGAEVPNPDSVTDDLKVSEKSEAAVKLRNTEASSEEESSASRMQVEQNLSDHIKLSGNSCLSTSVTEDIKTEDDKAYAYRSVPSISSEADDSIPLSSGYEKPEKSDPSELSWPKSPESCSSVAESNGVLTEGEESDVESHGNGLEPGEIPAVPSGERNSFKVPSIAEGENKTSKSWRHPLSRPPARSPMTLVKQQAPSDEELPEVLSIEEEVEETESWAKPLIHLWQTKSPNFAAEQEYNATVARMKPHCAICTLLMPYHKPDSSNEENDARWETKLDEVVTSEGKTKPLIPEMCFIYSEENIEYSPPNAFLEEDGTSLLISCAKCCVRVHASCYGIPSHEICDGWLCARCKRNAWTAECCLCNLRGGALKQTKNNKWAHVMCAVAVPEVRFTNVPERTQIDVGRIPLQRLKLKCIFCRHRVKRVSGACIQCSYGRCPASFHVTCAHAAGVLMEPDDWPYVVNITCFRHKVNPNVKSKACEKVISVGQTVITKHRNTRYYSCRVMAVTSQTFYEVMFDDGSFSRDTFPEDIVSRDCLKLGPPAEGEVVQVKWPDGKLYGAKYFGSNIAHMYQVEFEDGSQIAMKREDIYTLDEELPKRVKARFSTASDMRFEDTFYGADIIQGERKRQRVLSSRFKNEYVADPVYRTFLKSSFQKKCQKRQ

[12] = target: Lysine-specific demethylase 5B (Homo sapiens, UniProt Q9UGL1); assay: Inhibition of full length human KDM5B using biotinylated H2NART(KMe3)QTARKSTGGKAPRKQLA-NTPEG-biotin as substrate after 30 to 40 mins using 2 uM of 2-OG as co-substrate by TR-FRET assay
Sequence of Lysine-specific demethylase 5B (Q9UGL1 whole entry): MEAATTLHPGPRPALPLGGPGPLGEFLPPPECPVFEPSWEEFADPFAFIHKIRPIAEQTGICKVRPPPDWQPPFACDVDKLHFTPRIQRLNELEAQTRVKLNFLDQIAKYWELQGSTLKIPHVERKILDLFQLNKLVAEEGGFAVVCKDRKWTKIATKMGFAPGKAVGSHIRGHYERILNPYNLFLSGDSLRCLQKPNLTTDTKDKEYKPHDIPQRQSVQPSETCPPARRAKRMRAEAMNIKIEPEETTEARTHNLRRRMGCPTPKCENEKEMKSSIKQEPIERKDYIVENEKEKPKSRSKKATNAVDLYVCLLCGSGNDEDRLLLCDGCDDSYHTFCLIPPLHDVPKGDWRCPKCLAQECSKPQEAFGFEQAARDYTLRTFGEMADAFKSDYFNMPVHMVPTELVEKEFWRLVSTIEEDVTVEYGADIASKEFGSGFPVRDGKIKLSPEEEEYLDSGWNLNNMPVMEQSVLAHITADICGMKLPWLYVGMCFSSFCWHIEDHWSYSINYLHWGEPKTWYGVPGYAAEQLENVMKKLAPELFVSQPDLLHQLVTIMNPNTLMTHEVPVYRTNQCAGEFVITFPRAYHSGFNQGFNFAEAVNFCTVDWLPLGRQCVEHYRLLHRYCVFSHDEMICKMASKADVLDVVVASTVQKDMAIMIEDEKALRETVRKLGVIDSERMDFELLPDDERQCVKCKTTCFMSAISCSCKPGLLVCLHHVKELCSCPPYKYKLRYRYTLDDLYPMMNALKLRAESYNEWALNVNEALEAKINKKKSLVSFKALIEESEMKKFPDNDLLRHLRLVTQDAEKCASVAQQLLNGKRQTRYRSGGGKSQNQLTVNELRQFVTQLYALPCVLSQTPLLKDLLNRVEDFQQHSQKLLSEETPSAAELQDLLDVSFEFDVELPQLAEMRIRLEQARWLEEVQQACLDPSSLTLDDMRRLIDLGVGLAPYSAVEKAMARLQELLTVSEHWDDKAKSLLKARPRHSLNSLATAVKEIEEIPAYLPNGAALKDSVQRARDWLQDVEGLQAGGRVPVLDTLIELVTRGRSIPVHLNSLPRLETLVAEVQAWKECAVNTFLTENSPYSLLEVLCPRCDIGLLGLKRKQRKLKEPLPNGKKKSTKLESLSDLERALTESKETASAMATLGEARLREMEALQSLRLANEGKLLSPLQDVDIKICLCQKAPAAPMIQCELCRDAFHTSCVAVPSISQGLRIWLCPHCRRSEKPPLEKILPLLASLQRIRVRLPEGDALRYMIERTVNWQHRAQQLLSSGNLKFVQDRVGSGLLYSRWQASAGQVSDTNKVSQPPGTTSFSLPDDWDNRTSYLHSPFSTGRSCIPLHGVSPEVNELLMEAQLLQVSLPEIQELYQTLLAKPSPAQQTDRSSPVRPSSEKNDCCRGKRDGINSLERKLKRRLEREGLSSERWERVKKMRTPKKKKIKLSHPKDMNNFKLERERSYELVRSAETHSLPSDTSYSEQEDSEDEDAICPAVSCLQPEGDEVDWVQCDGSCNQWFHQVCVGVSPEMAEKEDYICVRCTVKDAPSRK

[13] = target: T1, Lysine-specific demethylase 5A; assay: Ratio of IC50 for full length human KDM5A using biotinylated H2NART(KMe3)QTARKSTGGKAPRKQLA-NTPEG-biotin as substrate and 10 uM of 2-OG as co-substrate to IC50 for full length human KDM5A using biotinylated H2NART(KMe3)QTARKSTGGKAPRKQLA-NTPEG-biotin as substrate and 1 uM of 2-OG as co-substrate
Homo sapiens [14] = species on record: Homo sapiens; assay: Selectivity ratio of IC50 for full length human KDM4C to IC50 for full length human KDM5A
Homo sapiens [15] = species on record: Homo sapiens; assay: Selectivity ratio of IC50 for full length human KDM2B to IC50 for full length human KDM5A

## CC(C)NC(=O)c1c(O)c2ccncc2[nH]c1=O
[1]
  IC50: 400 nM

## CN(C)C(=O)c1c(O)c2ccncc2[nH]c1=O
[1]
  IC50: 5300 nM

## CCN(C)C(=O)c1c(O)c2ccncc2[nH]c1=O
[1]
  IC50: 700 nM

## CCNC(=O)c1c(O)c2ccncc2[nH]c1=O
[2]
  fraction unbound: 0.3
[3]
  CLhep predicted: 11.5 mL/min/kg
[4]
  Papp A→B: 15.8 ×10⁻⁶ cm/s
[5]
  inhibition: inactive
[1]
  IC50: 50 nM
[6]
  pKa: 6.4

## CCc1c(O)c2ccncc2[nH]c1=O
[7]
  IC50: 2100 nM
[1]
  IC50: 230 nM

## CCOC(=O)c1c(O)nc2ccccc2c1O
[1]
  IC50: > 25000 nM

## CC(C)c1c(-c2ccccc2)[nH]c2c(C#N)cnn2c1=O
[8]
  IC50: 10 nM

## O=c1cc(O)c2ccncc2[nH]1
[1]
  IC50: 6700 nM

## CNC(=O)c1c(O)c2ccncc2[nH]c1=O
[1]
  IC50: 70 nM

## CCc1c(O)c2ccncc2n(CC)c1=O
[1]
  IC50: 3800 nM

## N#Cc1c(O)c2ccncc2[nH]c1=O
[9]
  IC50: > 25000 nM
[10]
  IC50: 170 nM
[5]
  inhibition: inactive
[11]
  IC50: > 25000 nM
[1]
  IC50: 25 nM
[12]
  IC50: 70 nM
[6]
  pKa: 3.5

## O=C(NCc1ccccc1)c1c(O)c2ccncc2[nH]c1=O
[1]
  IC50: > 25000 nM

## CCOC(=O)c1c(O)c2cccnc2[nH]c1=O
[1]
  IC50: > 25000 nM

## O=C(c1c(O)c2ccncc2[nH]c1=O)N1CCCC1
[1]
  IC50: > 25000 nM

## N#Cc1c(O)c2ccccc2[nH]c1=O
[1]
  IC50: > 25000 nM

## O=c1[nH]c(C(F)(F)F)nc2cnccc12
[9]
  IC50: > 25000 nM
[13]
  Ratio IC50: 9
Homo sapiens [14]
  Ratio IC50: 12
[11]
  IC50: 1900 nM
[1]
  IC50: 160 nM
[6]
  pKa: 4.6
Homo sapiens [15]
  Ratio IC50: > 150
